Patent US5514704A, “Benzothiophenes to inhibit leukotrienes” (Eli Lilly and Company, priority 1995, dated 1996)

Experiments:
cPLA2 [1] = molecular target: T1, cPLA2 (Homo sapiens, UniProt P47712); test: cPLA2 Enzymatic Activity Assay, 14C-PC/DG liposome substrate; format: biochemical
T1 sequence (P47712 1-749): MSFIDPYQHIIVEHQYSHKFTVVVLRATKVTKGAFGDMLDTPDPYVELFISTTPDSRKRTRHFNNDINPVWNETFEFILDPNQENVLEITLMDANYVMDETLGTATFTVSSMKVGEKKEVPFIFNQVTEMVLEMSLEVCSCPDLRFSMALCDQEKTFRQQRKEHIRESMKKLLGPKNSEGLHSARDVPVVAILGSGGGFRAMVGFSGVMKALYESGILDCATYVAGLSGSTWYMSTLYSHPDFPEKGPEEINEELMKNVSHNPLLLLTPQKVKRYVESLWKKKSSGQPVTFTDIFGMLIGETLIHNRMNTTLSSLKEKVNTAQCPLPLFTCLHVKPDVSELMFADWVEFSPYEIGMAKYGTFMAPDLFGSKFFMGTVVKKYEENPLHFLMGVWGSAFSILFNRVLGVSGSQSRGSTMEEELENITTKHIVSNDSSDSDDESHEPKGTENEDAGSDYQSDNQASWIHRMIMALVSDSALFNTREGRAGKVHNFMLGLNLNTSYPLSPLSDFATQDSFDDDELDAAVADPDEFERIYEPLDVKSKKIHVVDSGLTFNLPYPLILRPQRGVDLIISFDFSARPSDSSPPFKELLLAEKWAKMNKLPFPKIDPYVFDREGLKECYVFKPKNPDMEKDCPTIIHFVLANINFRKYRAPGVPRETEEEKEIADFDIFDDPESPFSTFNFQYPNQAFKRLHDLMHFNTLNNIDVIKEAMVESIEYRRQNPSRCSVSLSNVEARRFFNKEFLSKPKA
Description: (§1) The substrate, sonicated liposomes containing 1-palmitoyl-2 ^14 C!arachidonoyl-sn-glycerol-3-phosphocholine ( ^14 C!PC, 55 mCi/mmol from NEN Research Products) and sn-1,2-dioleoylglycerol (DG, Avanti Polar Lipids, Birmingham, Ala.) at a molar ratio of 2:1, are prepared as follows. ^14 C!PC (20 nmol, 1×10^6 dpm, 50 uCi/ml in toluene/ethanol) and DG (10 nmol, 100 ug/ml in chloroform) are dried under nitrogen. The lipids are dispersed in 1 ml of 150 mM NaC1, 50 mM Hepes, pH 7.5 (assay buffer) by sonication at 4° C., with Microson probe-sonicator (Heat Systems Ultrasonics) for 4×15 seconds, with 45 second intervals. Bovine serum albumin (essentially fatty acid free, from a 100 mg/ml stock in water, Sigma) is added to a final concentration of 4 mg/ml. Samples to be assayed for cPLA2 activity are incubated with 50 ul liposomes (0.5 nmol ^14 C!PC, 50,000 dpm containing 0.25 nmol of DG) in a total volume of 0.2 ml of assay buffer containing 1 mM CaCl2 and 1 mM 2-ME. Incubations are carried out at 37° C. for 15 minutes and terminated by adding 2 ml of Dole's reagent (2-propanol/heptane/0.5M sulfuric acid, 40:10:1 containing 10 ug/ml of stearic acid). After mixing, 1.2 ml of heptane and 1 ml of water are added. The mixtures are briefly vortexed and the upper phase transferred to tubes containing 2 ml of heptane and 150 mg of Bio-Sil (Bio-Rad Laboratories) activated at 130° C. before use. The tubes are thoroughly vortexed and centrifuged (1000×g for 5 minutes). The supernatants are decanted into scintillation vials. After addition of 10 ml of a liquid scintillation cocktail (Ready Protein+, Beckman) radioactivity is counted using a Beckman liquid scintillation counter Model LS 7000. High radioactive counts correlate with enzymatic activity. The chromogenic cPLA2 enzyme assay used is analogous to Reynolds et al., Analytical Biochemistry, 217, 25-32 (1194).
(§2) (The results are in IC50 μM). (Compound A is a compound of formula II where R6 and R7 are hydrogen, and R5 is phenyl. Compound B is a compound of formula I where R1, R2 and R3 are hydrogen. Compound C is a compound of formula II wherein R6 and R7 are methyl, and R5 is p-methoxyphenyl. Compound D is a compound of formula II wherein R1 and R2 are hydrogen, and R5 is p-hydroxyphenyl.)

[2] = MCII mast cell toxicity assay (XTT); format: cell-based; settings: mouse, mcii mast cells, 4-12 hours, 37° C., read-out: MCII Mast Cell Toxicity (IC50)
Text: This toxicity assay is run in parallel with the MCII mast cell LTC4 assay and serves as an indicator of compound effects on the viability and metabolic activity of the MCII cells. This "toxicity" assay is based on the ability of dehydrogenase enzymes present in viable metabolically active cells to bioreduce the tetrazolium salt XTT yielding a colored, water soluble formazan product. (see, Roehm et al.) "An improved colorimetric assay for cell proliferation and viability utilzing the tetrazolium salt XTT. J. Immunol. Methods […] (1991).
A duplicate polystyrene 96-well tissue culture plate (Costar) is set up with sensitized MCII cells, EM95 ascites, media and dilutions of the test compound as described above. The complete media is supplemented with concanavalin A induced culture supernatants from the mouse helper T cell clone D10.G4, as a source of mast cell growth factors.
Wells of the toxicity assay plate are pulsed with 25 μl XTT (Sigma) plus phenazine methosulfate (Aldrich) giving a final concentration of 0.2 mg/ml XTT and 25 μM phenazine methosulfate. The plates are incubated at 37° C. in 10% CO2 for 4-12 hours and then production of the XTT formazan product determined by measuring the optical density of the wells at a wavelength of 450 nm. The positive control on each plate is stimulated MCII cells with dimethyl sulfoxide vehicle alone and the negative control is the same reaction mixture without cells. The background negative control value is subtracted from experimental and positive control values and the data are reported as percent of positive control.
as §2

5-lipoxygenase = molecular target: T2, 5-lipoxygenase (Homo sapiens, UniProt P09917); test: 5-Lipoxygenase (5-LPO) Assay: inhibition of leukotriene B4 formation by human neutrophil 20,000×g supernatant; format: biochemical
T2 construct: The resultant supernatant containing the cytosolic 5-lipoxygenase activity is stored frozen; from tissue; host or cells: peripheral blood neutrophils, 20,000×g supernatant of sonicate
T2 sequence (P09917 1-674): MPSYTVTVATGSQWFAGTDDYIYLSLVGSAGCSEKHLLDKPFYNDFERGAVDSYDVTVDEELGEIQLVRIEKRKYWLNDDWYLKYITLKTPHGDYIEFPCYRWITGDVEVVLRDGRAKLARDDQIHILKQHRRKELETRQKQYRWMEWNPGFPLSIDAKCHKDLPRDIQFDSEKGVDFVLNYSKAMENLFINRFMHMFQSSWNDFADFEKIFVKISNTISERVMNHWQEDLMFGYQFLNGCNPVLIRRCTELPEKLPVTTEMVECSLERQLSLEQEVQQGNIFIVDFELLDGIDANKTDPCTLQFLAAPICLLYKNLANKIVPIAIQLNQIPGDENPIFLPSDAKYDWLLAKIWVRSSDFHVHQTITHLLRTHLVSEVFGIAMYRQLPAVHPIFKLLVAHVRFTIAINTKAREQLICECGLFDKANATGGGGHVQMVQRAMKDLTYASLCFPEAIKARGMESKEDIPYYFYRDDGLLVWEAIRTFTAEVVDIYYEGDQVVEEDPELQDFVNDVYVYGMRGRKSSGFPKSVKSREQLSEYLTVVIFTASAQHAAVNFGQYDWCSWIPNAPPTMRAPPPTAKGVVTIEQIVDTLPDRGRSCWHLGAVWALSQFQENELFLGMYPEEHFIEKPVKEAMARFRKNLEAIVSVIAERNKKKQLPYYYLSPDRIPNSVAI
Description: To determine the effect of compounds on 5-lipoxygenase activity, peripheral blood neutrophils are separated by density centrifugation as described (Marder et al., Prostaglandins Leukot. and Essent. Fatty Acids 46, 265-270, 1992) and the cytosolic 5-lipoxygenase is prepared from isolated neutrophils according to a modification of Carter et al., (J. Pharmacolo Exp. Thero 256, 929-937 (1991)). Briefly, neutrophils are washed twice in buffer (in millimolar: PIPES, 10; BES, 10; and EDTA, 1; pH 6.8) and diluted to 2.5×10^7 cells/ml. Cells are disrupted with sonication and the cytosolic fraction obtained by centrifugation at 20,000×g for 20 min. at 4° C. The resultant supernatant containing the cytosolic 5-lipoxygenase activity is stored frozen at -70° C. prior to use. Compounds are evaluated for 5-lipoxygenase inhibitory activity. Varying concentration of compounds in 200 ml aliquots containing 50 ml of human 20,000×g supernatant in assay buffer (in millimolar: PIPES, 10; BES, 10; EDTA, 1; NaCl, 100; ATP, 1.56; and CaCl2, 2.5; pH 6.8) containing 3.0 mM AA are used. The reaction proceeds for 5 minutes at 37° C. and is terminated upon the addition of 50 ml EDTA (250 mM). The percent inhibition of leukotriene B4 is determined for each concentration of test compound as compared to vehicle (containing no compound) control. The concentration representing 50% inhibition (IC50) is determined by standard mathematical techniques. Leukotriene B4 is determined by EIA. EIA reagents were purchased from Caymen Chemical Co. (Ann Arbor, Mich.) and used according to the assay procedures as outlined therein.

[3] = system: thromboxane B2 (TxB2) production, human plasma-depleted blood; test: Inhibition of TxB2 production by plasma-depleted blood; format: cell-based; settings: read-out: Plasma DPLTD Blood TxB2 (IC50)
Description: Compounds are evaluated for their ability to inhibit production of leukotriene B4 (LTB4) and thromboxane B2 (TxB2) upon stimulation of human plasma-depleted blood with formyl-methionyl-leucyl-phenylalanine (FMLP) and thrombin. LTB4 is produced by neutrophils and TxB2 by platelets stimulated at their respective receptors with FMLP and thrombin. The assay is carried out in 1 ml deep well polypropylene 96-well plates (Beckman). For the tests ten ml of blood is collected in EDTA at a final concentration of 1.5 mg/ml. Then, 40 ml glucose phosphate buffer containing 0.1% gelatin is added and the suspension centrifuged at 900 g for 10 minutes at room temperature. The supernatant is discarded and the cells washed once with 50 ml buffer before resuspending them in 50 ml Krebs-Ringers-Henseleit Buffer containing 0.1% gelatin, 1 mM CaCl2, 1.1 mM MgCl2 (KRH buffer). Working solutions of test compounds are made by dissolving the material in DMSO at 10 mM and diluting with appropriate amounts of KRH buffer. An agonist solution is made containing 1 μM FMLP (sigma) and 10 units/ml of thrombin in KRH buffer (Enzyme Research Labs). […] The amount of LTB4 and TxB2 produced is determined by the use of a competitive enzyme immunoassay using commercial reagents from Cayman Chemical. […]

cPLA2 [4] = molecular target: T1, cPLA2; test: cPLA2 enzyme assay, chromogenic; format: biochemical
Description: as §1, with “The mixtures are briefly vortexed and the upper phase transferred to tubes containing 2 ml of heptane and 150 mg of Bio-Sil (Bio-Rad Laboratories) activated at 130° C. before use. The tubes are thoroughly vortexed and centrifuged (1000×g for 5 minutes). The supernatants are decanted into scintillation vials.” left out, “High radioactive counts correlate with enzymatic activity. The chromogenic cPLA2 enzyme assay used is analogous to Reynolds et al., Analytical Biochemistry, 217, 25-32 (1194).” left out

| SMILES | IC50 (cPLA2 [1]; 14C-PC/DG liposomes, 37° C., 15 min, pH 7.5, read-out: C-PLA2 Enzyme, C14PC/DA6 (IC50)) [µM] | CC50 [2] [µM] | IC50 (5-lipoxygenase) [nM] | IC50 (cPLA2 [1]) [µM] | IC50 [3] [µM] | IC50 (cPLA2 [4]) [µM] |
| --- | --- | --- | --- | --- | --- | --- |
| O=C(c1ccccc1)c1c(-c2ccc(O)cc2)sc2cc(O)ccc12 [Compound A] | 7.3 ± 0.5 | 0.3 |  |  |  |  |
| Oc1ccc(-c2cc3ccc(O)cc3s2)cc1 [Compound B] |  | < 10 | 200 ± 7 | 7 ± 0.8 |  |  |
| O=C(c1ccc(O)cc1)c1c(-c2ccc(O)cc2)sc2cc(O)ccc12 [Compound D] |  |  |  |  | > 9.8 |  |
| O=C(c1ccc(-c2ccccc2)cc1)c1c(-c2ccc(O)cc2)sc2cc(O)ccc12 [Example 1, 6-hydroxyphenyl-2-(p-hydroxyphenyl)-(benzo(B)thien-3-yl)(p-phenyl)phenyl methanone] |  | > 10 |  | < 1.2 |  | 146 |
| O=C(c1cccc2ccccc12)c1c(-c2ccc(O)cc2)sc2cc(O)ccc12 [Example 2, 6-hydroxyphenyl-2-(p-hydroxyphenyl)-(benzo(B)thien-3-yl)(α-napthyl)methanone] |  | > 10 | 1700 ± 900 | 4.8 ± 1.6 |  |  |
| O=C(c1ccc2ccccc2c1)c1c(-c2ccc(O)cc2)sc2cc(O)ccc12 [Example 3, 6-hydroxyphenyl-2-(p-hydroxyphenyl)-(benzo(B)thien-3-yl)(β-napthyl)methanone] |  | > 10 | 1000 ± 500 | 2.3 ± 0.6 |  | 122 |
